The target in data set [1] is T1, Prostaglandin E synthase (Homo sapiens) (UniProt O14684).
T1 sequence (whole entry): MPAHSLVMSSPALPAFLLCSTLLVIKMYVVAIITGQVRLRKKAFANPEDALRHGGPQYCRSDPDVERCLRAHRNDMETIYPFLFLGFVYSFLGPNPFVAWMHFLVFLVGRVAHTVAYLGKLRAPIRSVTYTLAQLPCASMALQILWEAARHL
Briefly: Inhibition of human mPGES-1 expressed in 293-F cells using PGH2 as substrate preincubated for 15 mins followed by substrate addition measured after 30 secs at 10 uM by enzyme immunoassay.

A further data set has as its target T2, Prostaglandin E synthase (Homo sapiens, UniProt O14684).
T2 sequence (O14684 whole entry): T1 sequence (whole entry)
Briefly: Inhibition of human mPGES-1 expressed in 293-F cells using PGH2 as substrate preincubated for 15 mins followed by substrate addition measured after 30 secs enzyme immunoassay. The format is cell-based.

The test system of data set [2] is COX1/COX2 (ovine COX1, human COX2; the isoform is not stated for the values). Briefly: Inhibition of ovine COX1/human COX2 assessed as reduction in PGH2 production by measuring PGF2alpha at 100 uM using PG-acetylcholinesterase as tracer by colorimetry. The note with it: ovine COX1/human COX2 enzymes.
Data set [3] can be described thus: Inhibition of ovine COX1/human COX2 assessed as reduction in PGH2 production by measuring PGF2alpha using PG-acetylcholinesterase as tracer by colorimetry.

The structures appear in SMILES notation. Some results are limits rather than exact numbers.

One may read the inhibition as the percentage by which the read-out fell short of the control. One may read the IC50 as the concentration that gives 50% inhibition. Consider `CC(C)(C)c1cc(OCc2nnc3sc(-c4ccc(Cl)cc4)nn23)c(Cl)cc1OCc1nnc2sc(-c3ccc(Cl)cc3)nn12`, for which the inhibition in data set [1] came to 75%. The compound also displayed an IC50 against Prostaglandin E synthase of 917 nM. Also, in data set [2], the inhibition at 100 µM is 15%.
As for `CCOc1ccc(NC(=S)N2CCC(CCCC3CCN(C(=S)Nc4ccc(OCC)cc4)CC3)CC2)cc1`, the inhibition in data set [1] amounted to 59%.
On the same count and under the same terms, the figure for `C[C@@H]1c2c(cc(OC(=O)c3cccc(S(=O)(=O)F)c3)nc2OC(=O)c2cccc(S(=O)(=O)F)c2)C(=O)N1Cc1ccccc1` is 15%.
On the same count and under the same terms, with `O=C(Nc1ccccc1)c1cc(S(=O)(=O)Nc2n[nH]c(=O)[nH]2)c(SSc2cc(Cl)c(C(=O)Nc3ccccc3)cc2S(=O)(=O)Nc2n[nH]c(=O)[nH]2)cc1Cl` the figure was 59%; with `O=c1oc2ccccc2n1P(=O)(N1CCOCC1)N1CCOCC1`, 29%.
Same read-out and setting: with `N#C[C@@H](c1ccccc1)N(CCCCCCN(C(=O)c1ccccc1)[C@@H](C#N)c1ccccc1)C(=O)c1ccccc1` the figure was 40 to 44%.
Compound `Cc1ccc(NC(=S)N2CCC(CCCC3CCN(C(=S)Nc4ccc(C)cc4C)CC3)CC2)c(C)c1` yielded an inhibition in data set [1] of 49%.
Still for that read-out and setting: the figure for `CC(C)C(=O)OCC(C)(C)[C@H](OC(=O)COc1ccc(Cl)cc1Cl)C(C)C` is 69%; for `COc1ccc(C(=O)COC(=O)[C@H](C[Se][Se]C[C@H](NC(=O)c2ccc(Br)cc2F)C(=O)OCC(=O)c2ccc(OC)cc2)NC(=O)c2ccc(Br)cc2F)cc1` it is 65%.
On to `O=C(OCCN(CCOC(=O)c1ccccc1)C(=O)N(CCOC(=O)c1ccccc1)CCOC(=O)c1ccccc1)c1ccccc1`, for which the inhibition in data set [1] is 46%.
As to `CC(C)(C)OC(=O)N[C@H](Cc1ccc(OCc2ccccc2)cc1)C(=O)N[C@H](CCCCNC(=O)OCc1ccccc1)C(=O)ON1C(=O)CCC1=O`, the inhibition in data set [1] came to 32%.
With `O=C(Nc1cccc2c(OC(=O)C(Cl)Cl)c(/C=C/c3ccc(S(=O)(=O)Nc4nccs4)cc3)cc(/N=N/c3ccc(S(=O)(=O)Nc4nccs4)cc3)c12)C(Cl)Cl`, in data set [1], the inhibition is 10%.
The same measure, in the same setting: with `CN(Cc1ccc(Cl)cc1)C(=O)NCCCCCCNC(=O)N(C)Cc1ccc(Cl)cc1` the figure was 64%.
Still for that read-out and setting: with `O=C(C[C@H](c1ccc2c(c1)OCO2)N1CCN([C@H](CC(=O)c2ccc(Br)cc2)c2ccc3c(c2)OCO3)CC1)c1ccc(Br)cc1` the figure was 50%.
On the same count and under the same terms, the figure for `CC1=NN(C(=O)CC(=O)Nc2ccccc2C)C(=O)[C@@H]1/C=N/c1ccc(S(=O)(=O)c2ccc(/N=N/[C@@H]3C(=O)N(C(=O)CC(=O)Nc4ccccc4C)N=C3C)cc2)cc1` is 36%.
In turn, `C[n+]1ccc(Nc2ccc(NC(=O)c3ccc(Nc4cc[n+](C)c5ccc(N)cc45)cc3N)cc2)cc1` returned an inhibition in data set [1] of 30%.
For the compound `COc1ccc(N(Nc2ccc(Br)cc2)c2ccccc2N(Nc2ccc(Br)cc2)c2ccccc2OC)cc1`, the inhibition in data set [1] stood at 100%. Further, the IC50 is 889 nM on Prostaglandin E synthase and above 100000 nM in data set [3]. The inhibition at 100 µM in data set [2] was determined as 37%.
In data set [1], `Cc1noc(NS(=O)(=O)c2ccc(/N=N/c3cc(/N=N/c4ccc(S(=O)(=O)Nc5onc(C)c5C)cc4)c4c(NC(=O)C(Cl)Cl)cccc4c3OC(=O)C(Cl)Cl)cc2)c1C` came in with an inhibition of 43%.
Still for that read-out and setting: the figure for `Cc1ccc(NC(=O)c2cc(S(=O)(=O)Nc3n[nH]c(=O)[nH]3)c(SSc3cc(Cl)c(C(=O)Nc4ccc(C)cc4)cc3S(=O)(=O)Nc3n[nH]c(=O)[nH]3)cc2Cl)cc1` is 47%.
Consider `CCCCOc1ccc(NC(=S)Nc2ccc(N(C)C)cc2)cc1` [THIAMBUTOSINE], for which, in data set [1], the inhibition was determined as 99%. The compound also came in with an IC50 at Prostaglandin E synthase of 370 nM. Moreover, the inhibition at 100 µM in data set [2] was determined as 1%.
In the case of `O=C(Nc1ccc(Cl)cc1)Nc1nnc(-c2cccc(-c3nnc(NC(=O)Nc4ccc(Cl)cc4)o3)c2)o1`, in data set [1], the inhibition worked out at 59%.
Consider `N#Cc1cccc(C2C(=O)c3c(c(-c4ccccc4)c(-c4ccc(Sc5ccc(-c6c(-c7ccccc7)c7c(c(-c8ccccc8)c6-c6ccccc6)C(=O)N(c6cccc(C#N)c6)C7=O)cc5)cc4)c(-c4ccccc4)c3-c3ccccc3)C2=O)c1` (centres undefined), for which the inhibition in data set [1] is 100%. On Prostaglandin E synthase, this compound had an IC50 of 439 nM. The inhibition at 100 µM in data set [2] came to 9%.
Take `O=P1(N(CCCl)CCCl)N(Cc2ccc(Cl)c(Cl)c2)CCCN1Cc1ccc(Cl)c(Cl)c1`: in data set [1], the inhibition was 65%.
Turning to `O=[N+]([O-])c1ccc(CSc2ncc(Br)c(SCc3ccc([N+](=O)[O-])cc3)n2)cc1`, in data set [1], the inhibition amounted to 26%.
The same measure, in the same setting: with `COc1ccc2nc3cc(Cl)ccc3c(SCC(=O)Nc3ccccc3-c3ccccc3NC(=O)CSc3c4ccc(Cl)cc4nc4ccc(OC)cc34)c2c1` the figure was 57%; with `O=C(C(=O)c1ccc(/N=C/c2ccc(N(CCCl)CCCl)cc2)cc1)c1ccc(/N=C/c2ccc(N(CCCl)CCCl)cc2)cc1`, 28%.
In data set [1], `CC(=O)O[C@H]1CC[C@]2(C)C3C[C@@]4(C)C(CCC4[C@@H](C)CCCC(C)C)C[C@]3(C#N)n3c(=O)n(-c4ccccc4)c(=O)n3[C@]2(C#N)C1` (some centres undefined) displayed an inhibition of 99%. The half-maximal inhibitory concentration (IC50) against Prostaglandin E synthase came out at 276 nM. Besides, in data set [2], the inhibition at 100 µM came to 14%.
The like results for `Cc1ccccc1NC(=O)/C(Cc1nc2ccc(C(=O)c3ccccc3)cc2nc1O)=N\NC(=O)c1ccncc1` were, in that order, 94%, 664 nM and 0%.
In turn, `Cc1cc(NS(=O)(=O)c2ccc(/N=N/c3cc(/N=N/c4ccc(S(=O)(=O)Nc5cc(C)nc(C)n5)cc4)c4c(NC(=O)C(Cl)Cl)cccc4c3OC(=O)C(Cl)Cl)cc2)nc(C)n1` showed an inhibition in data set [1] of 46%.
As to `O=[N+]([O-])c1ccc(N/N=C(\C=C\c2ccc3c(c2)OCO3)c2cnc(Nc3ccc(Cl)c(Cl)c3)s2)c([N+](=O)[O-])c1`, the inhibition in data set [1] was 98%. The compound further came in with an IC50 at Prostaglandin E synthase of 284 nM. Further, the inhibition at 100 µM in data set [2] worked out at 8%.
In data set [1], `CC/C(=C(/CC)c1ccc(Oc2nc(N3CC3)nc(N3CC3)n2)cc1)c1ccc(Oc2nc(N3CC3)nc(N3CC3)n2)cc1` came in with an inhibition of 46%.
Still for that read-out and setting: the figure for `CCCCCCCCCCCC(=O)Nc1ccc(SSc2ccc(NC(=O)CCCCCCCCCCC)cc2)cc1` is 70%; for `CCCCCCCCCCCCc1ccc(NC2=C(Cl)C(=O)C(Nc3ccc(CCCCCCCCCCCC)cc3)=C(Cl)C2=O)cc1` it is 49%.
Same read-out and setting: the figure for `O=C(N/N=C\c1ccccc1/C=N\NC(=O)Nc1ccc(/N=N/c2ccccc2)cc1)Nc1ccc(/N=N/c2ccccc2)cc1` is 71%; for `S=C(Nc1ccccc1)N1CCC(CCCC2CCN(C(=S)Nc3ccccc3)CC2)CC1` it is 53%; for `CCOC(=O)CC(=O)c1cn(CCCOC(=O)CCCCCCCCC(=O)OCCCn2cc(C(=O)CC(=O)OCC)c(=O)[nH]c2=O)c(=O)[nH]c1=O` it is 48%.
The same measure, in the same setting: the figure for `Cn1c2ccccc2c(=S)c2cc(NC(=O)CCCCC(=O)Nc3ccc4c(c3)c(=S)c3ccccc3n4C)ccc21` is 25%; for `CC[n+]1ccc(Nc2ccc(NC(=O)c3ccc(Nc4cc[n+](CC)c5ccc([N+](=O)[O-])cc45)cc3)cc2)cc1` it is 70%; for `CC(=O)N[C@H]1[C@@H](OCc2ccccc2)O[C@H](CO)[C@H](O)[C@@H]1C[C@H](C)C(=O)N[C@@H](C)C(=O)N[C@H](CCC(=O)OCCNc1c2ccccc2nc2cccc([N+](=O)[O-])c12)C(N)=O` it is 37%.

The values are drawn from ChEMBL document CHEMBL4052749, “Selective inhibitors of human mPGES-1 from structure-based computational screening” (Bioorg Med Chem Lett, 2017).
